Experimental data taken from PMC6172451 (Frontiers in Microbiology, 2018).
Like-named read-outs stand apart in the source and are kept apart here. Bridges are numbered along the chain shown (N, C = ends). Where no end group is shown, it is not given here.

What was measured:
[1] = 1% (V/V) Tween 20, Tween 80, urea, and EDTA at 37°C for 3 h
Description: After 3 h of incubation at 37°C, the remaining activity against indicator was determined and untreated samples were used as a control test.

L. monocytogenes 54002 [2] = experiment: Mode of action: viable cells and optical density; format: cell-based, Listeria monocytogenes; settings: 256 μg/mL bacteriocin, about 10^8 CFU/mL in 20 mM sodium phosphate buffer, 37°C, after 3 h
Description: Cells were harvested and resuspended in sterile 20 mM sodium phosphate buffer to give 10^8 CFU/mL approximately. Bacteriocin was added for final concentration of 256 μg/mL, while a sample without added bacteriocin was used as control. All samples were incubated for 5 h at 37°C. The optical density (600 nm) and viable cells were monitored every 1 h ([Deraz et al., 2007]).

proteinase K = proteinase K (Parengyodontium album, UniProt P06873); settings: 360 μL bacteriocin (256 μg/mL) + 40 μL proteinase K, final 1 mg/mL; pH 7.5; 37°C; 3 h; read-out activity against L. monocytogenes 54002; triplicate
Description: (§1) After 3 h of incubation at appropriate the temperature (Table 3), the activity against indicator strain (L. monocytogenes 54002) was determined. Non-enzymic treatment was used as control test.

papain = papain (Carica papaya, UniProt P00784); settings: 360 μL bacteriocin (256 μg/mL) + 40 μL papain, final 1 mg/mL; pH 6.5; 37°C; 3 h; read-out activity against L. monocytogenes 54002; triplicate
Description: as §1

pepsin = pepsin (Sus scrofa, UniProt P00791); settings: 360 μL bacteriocin (256 μg/mL) + 40 μL pepsin, final 1 mg/mL; pH 3; 37°C; 3 h; read-out activity against L. monocytogenes 54002; triplicate
Description: as §1

chymotrypsin = chymotrypsin (Bos taurus, UniProt P00766); settings: 360 μL bacteriocin (256 μg/mL) + 40 μL chymotrypsin, final 1 mg/mL; pH 7.8; 25°C; 3 h; read-out activity against L. monocytogenes 54002; triplicate
Description: as §1

L. monocytogenes 54002 [3] = experiment: Membrane permeabilization, SYTOX Green stain; format: cell-based, Listeria monocytogenes
Description: The fluorescence was detected using RT-PCR instrument combined with 5 μM SYTOX^TM Green Stain (Invitrogen, United States). Cells were resuspended in sterile 20 mM sodium phosphate buffer to give 10^6 CFU/mL approximately. Bacteriocin was added at final concentration of 256 and 128 μg/mL, respectively, while a sample with added sodium phosphate buffer was used as control. Meanwhile, the treated cells were examined using confocal laser scanning microscopy (CLSM; Leica, United States) combined with 5 μM SYTOX^TM Green Dead Cell Stain.

[4] = pH stability, remaining antibacterial activity; format: physicochemical; settings: 256 μg/mL, 3 h at 37°C, readjusted to pH 6.0

Sequence of proteinase K (P06873 106-384): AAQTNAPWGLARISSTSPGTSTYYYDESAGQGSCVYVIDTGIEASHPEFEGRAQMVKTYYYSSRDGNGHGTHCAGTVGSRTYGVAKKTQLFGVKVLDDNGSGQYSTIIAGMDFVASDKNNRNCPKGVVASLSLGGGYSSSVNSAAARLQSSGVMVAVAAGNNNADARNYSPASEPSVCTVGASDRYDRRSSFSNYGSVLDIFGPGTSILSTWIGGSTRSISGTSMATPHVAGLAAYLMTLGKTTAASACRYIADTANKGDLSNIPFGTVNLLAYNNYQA
Sequence of papain (P00784 134-345): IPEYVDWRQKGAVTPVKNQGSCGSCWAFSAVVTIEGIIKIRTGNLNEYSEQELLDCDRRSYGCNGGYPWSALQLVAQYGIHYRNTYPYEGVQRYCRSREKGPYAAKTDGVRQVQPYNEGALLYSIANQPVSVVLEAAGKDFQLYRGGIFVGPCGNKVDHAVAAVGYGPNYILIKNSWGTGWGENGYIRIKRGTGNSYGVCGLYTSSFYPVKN
Sequence of pepsin (P00791 60-385): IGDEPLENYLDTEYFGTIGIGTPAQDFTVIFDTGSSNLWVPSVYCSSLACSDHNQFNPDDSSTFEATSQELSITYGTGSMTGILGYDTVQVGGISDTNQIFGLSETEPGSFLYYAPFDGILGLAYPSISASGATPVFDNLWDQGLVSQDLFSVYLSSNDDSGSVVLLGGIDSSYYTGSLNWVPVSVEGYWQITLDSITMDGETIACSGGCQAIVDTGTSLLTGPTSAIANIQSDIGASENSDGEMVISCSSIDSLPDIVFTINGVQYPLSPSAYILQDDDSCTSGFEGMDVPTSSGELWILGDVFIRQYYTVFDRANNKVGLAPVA

VIADKYYGNGVSCGKHTCTVDWGEAFSCSVSHLANFGHGKC (disulfide 13-18; cysteines drawn unpaired) [plantaricin LPL-1]
Stability toward surfactants in words [1]: remained stable | Decrease of optical density (600 nm) (L. monocytogenes 54002 [2]): 0.69 units | Decrease of the number of viable cells (L. monocytogenes 54002 [2]): 2.11 Log10 cfu | Diameter (mm) of inhibition zone after enzyme treatment (proteinase K): 0 mm | Diameter (mm) of inhibition zone after enzyme treatment (papain): 0 mm | Diameter (mm) of inhibition zone after enzyme treatment (pepsin): 0 mm | Diameter (mm) of inhibition zone after enzyme treatment (chymotrypsin): 0 mm | Amounts of dead cells (CLSM) (L. monocytogenes 54002 [3]; 256 μg/mL for 10, 20 and 30 min, 5 μM SYTOX Green Dead Cell Stain, confocal laser scanning microscopy): increased gradually | Fluorescence intensity (SYTOX Green) (L. monocytogenes 54002 [3]; 128 and 256 μg/mL, about 10^6 CFU/mL, 5 μM SYTOX Green, RT-PCR instrument, control remained stable): increased | Thermal stability in words (60, 80, and 100°C for 15 and 30 min): remained stable | Remaining antibacterial activity (%) (121°C, 20 min, 256 μg/mL, autoclave, Figure 5B): 58.82% | Remaining antibacterial activity (%) ([4]; pH 10, pH set with HCl/NaOH, activity against indicator, Figure 5A): 25% | Activity kept ([4]; pH between 2.0 and 7.0): 90%
